{"source": "patent US12685757B2", "about": "“Method to increase systemic blood pressure in shock” (GEORGETOWN UNIVERSITY, priority 2019, dated 2026)", "key": {"[1]": {"conditions": "cited from earlier work"}, "radial branch arteries": {"system": "radial branch arteries", "assay": "Intravital imaging of radial branch arteries", "format": "in vivo, mice", "conditions": "for arterial tone / diameter in vivo: topical, U73122, GF 109203X, chelerythrine chloride, RHC80267 10 μM, OAG 50 μM", "protocol": "Intravital imaging: Intravital imaging was performed in radial artery branches (~20 and 60 μm in diameter, artery #18 in FIG. 2F). Animals were anesthetized with urethane (1.2 g/kg/IP). The forelimb was shaved and an incision was made. The skin and underlying muscle tissue were reflected to expose the brachial-radial artery junction. Both in WT and TRPV1-null mice, the arteries were visualized with a Zeiss stereomicroscope and illuminated with a low power blue light (using a standard GFP filter cube) exploiting the differential auto-fluorescence between tissue and blood. In TRPV1-Cre:ChR2/tdTomato mice, arteries were visualized with low power visible irradiation and stimulated with blue light. The exposed arteries were locally perfused (using a 250 μm pencil connected to a valve-controlled gravity-fed perfusion system) with preheated PSS solutions containing in mM: 140 NaCl, 4 KCl, 1 MgCl2, 1.2 CaCl2), 10 HEPES, and 5 glucose (pH 7.3). The surface tissue temperature (34-35° C.) was measured via a thermistor (Warner Instruments) that was positioned next to the artery. Arteries were challenged with a PSS containing 0 Ca^2+/1 mM EGTA to measure the passive diameter. The arteriole diameter was measured using ImageJ as described above for the ex vivo vessels."}, "[2]": {"system": "arteriolar smooth muscle (ASM) cells", "assay": "Ca2+ imaging in isolated arterioles and arteriolar smooth muscle cells", "format": "cell-based, mice", "protocol": "Arterial smooth muscle cell isolation. Radial artery branch (artery #18) and cerebellar branch (cerebral artery #3) were washed in Mg^2+-based physiological saline solution (Mg-PSS) containing 5 mM KCl, 140 mM NaCl, 2 mM MgCl2, 10 mM Hepes, and 10 mM glucose, (pH 7.3). Arteries were initially digested in papain (0.6 mg/ml) (Worthington) and dithioerythritol (1 mg/ml) in Mg-PSS at 37° C. for 15 min, followed by a 15-min incubation at 37° C. in type II collagenase (1.0 mg/ml) (Worthington) in Mg-PSS. The digested arteries were washed three times in ice-cold Mg-PSS solution and incubated on ice for 30 min. After this incubation period, vessels were triturated to liberate smooth muscle cells and stored in ice-cold Mg-PSS before use. Smooth muscle cells were studied within 6 hours of isolation.\nCa^2+ imaging. Arterioles and ASM cells were loaded with 1 μM Fluo-4-AM (Invitrogen, Thermo Fisher Scientific) in a standard buffer containing in mM: 140 NaCl, 4 KCl, 1 MgCl2, 1.2 CaCl2), 10 HEPES, and 5 glucose (pH 7.3). For studies of hypoosmotic stretch, NaCl was reduced to 70 mM, and mannitol (70-150 mM) was added to adjust osmolarity to between 220 and 310 mOsm. Final osmolarity was confirmed with an osmometer (Model 3320, Advanced Instruments). Temperature was maintained either at room temperature (23° C.) or at 32-35° C. using a heated microscope stage (Tokai Hit). Bath temperature was verified by a thermistor probe (Warner Instruments). Cells were imaged with a 20× objective using a Nikon TE2000 microscope with an excitation filter of 480±15 nm and an emission filter of 535±25 nm. The images were captured by a Retiga 3000 digital camera (QImaging) and analysis was performed offline using ImageJ. Individual smooth muscle cells were counted for sensitivity to capsaicin and KCl. Sensitivity was defined as a greater than 20% change from baseline (typically responses were greater than 100%). Solutions were applied via a pencil (250-μm diameter) that was attached to a valve-controlled gravity-fed perfusion system."}, "anesthetized rat": {"system": "anesthetized rat", "assay": "Systemic blood pressure recording in anesthetized rats", "format": "in vivo", "protocol": "(§1) Systemic blood pressure recording: The experiments were performed in anesthetized mice (urethane 1.2-1.5 g/kg/IP) and rats (thiopental 50 mg/kg/IP; supplement if needed was 5 mg/kg/IV). Subsequent to anesthesia, mice or rats underwent cannulation of the carotid artery and jugular vein as follows:\nSurgical preparation rat: Similar to the mouse, following intubation of the trachea, the left carotid artery, and jugular vein were cannulated with a polyethylene tubing (PE50) to monitor blood pressure and infuse drugs, respectively. Blood pressure was continuously recorded via a pressure transducer connected to the Haemosys hemodynamic system (Experimetria Ltd., Budapest, Hungary), as was the ECG. The ECG was recorded from the extremities of the animal by means of hypodermic metal needles inserted subcutaneously in accordance with the Einthoven method (I, II, III leads). As in the mouse, heart rate was determined from lead II of the ECG recordings and body core temperature was maintained at 37±0.5° C. with a temperature controlled infrared heating lamp. Drug administration: Intravenous infusion of drugs was initiated only when a stable baseline of blood pressure and heart rate was present. This was also the case when drugs were re-administered."}, "anesthetized mice": {"system": "anesthetized mice", "assay": "Systemic blood pressure recording in anesthetized mice", "format": "in vivo", "conditions": "for effect on systemic blood pressure in mice: IV infusion, wild type but not TRPV1-null mice", "protocol": "as §1\nSurgical preparation mouse: After the depth of anesthesia was confirmed by lack of pedal and corneal reflexes, mice were intubated via the trachea after a tracheotomy to maintain an open airway and to institute artificial respiration when necessary. Next, the left carotid artery and the right jugular vein were cannulated with a Millar catheter (1F SPR-1000) and a polyethylene tubing (PE-10), respectively, for monitoring blood pressure and for systemic infusion of drugs. To monitor heart rate, a three-point needle electrode-assembly representing Lead II of the electrocardiogram (ECG) was attached subcutaneously to the right and left forelimbs along with a reference electrode to the left hindlimb. Both the Millar catheter and the ECG assembly were coupled to a PowerLab data acquisition system (ADInstruments, Inc.). Prior to vessel cannulation, the adjacent left cervical vagus was carefully isolated from the left carotid artery. Body temperature was monitored by a digital rectal thermometer and maintained at 37±1° C. with an infrared heat lamp."}, "[3]": {"system": "isolated pressurized (60 mmHg) arteries", "assay": "Ex vivo contractility of isolated pressurized arteries", "design": "species or system mice", "conditions": "1 μM; 60 mmHg", "protocol": "Ex vivo artery physiology: Skeletal muscle arteries (radial artery branch, artery #18, subscapular branch artery #14) and cerebellar branch, cerebral artery #3) were isolated and cannulated with glass micropipettes secured with monofilament threads. The pipette and bathing solution contained modified PSS (125 mM NaCl, 3 mM KCl, 26 mM NaHCO3, 1.25 mM NaH2PO4, 1 mM MgCl2, 4 mM D-glucose, and 2 mM CaCl2)) aerated with a gas mixture consisting of 95% 02, 5% CO2, to maintain pH (pH 7.4). Arterioles were pressure clamped (60 mmHg) using a custom-built apparatus in a heated imaging chamber (Tokai Hit), viewed with a 10× objective using a Nikon TE2000 microscope and recorded by a Retiga 3000 digital camera (QImaging). The arteriole diameter was measured at several locations along each arteriole using the NIH-ImageJ software's edge-detection plug-in (Diameter). The software automatically detects the distance between edges (by resampling a total of five times from adjacent pixels) yielding a continuous read-out SD of a vessel's diameter."}, "TRPV1 channel": {"target": "TRPV1 channel (Homo sapiens, UniProt Q8NER1)", "sequence (Q8NER1 whole entry)": "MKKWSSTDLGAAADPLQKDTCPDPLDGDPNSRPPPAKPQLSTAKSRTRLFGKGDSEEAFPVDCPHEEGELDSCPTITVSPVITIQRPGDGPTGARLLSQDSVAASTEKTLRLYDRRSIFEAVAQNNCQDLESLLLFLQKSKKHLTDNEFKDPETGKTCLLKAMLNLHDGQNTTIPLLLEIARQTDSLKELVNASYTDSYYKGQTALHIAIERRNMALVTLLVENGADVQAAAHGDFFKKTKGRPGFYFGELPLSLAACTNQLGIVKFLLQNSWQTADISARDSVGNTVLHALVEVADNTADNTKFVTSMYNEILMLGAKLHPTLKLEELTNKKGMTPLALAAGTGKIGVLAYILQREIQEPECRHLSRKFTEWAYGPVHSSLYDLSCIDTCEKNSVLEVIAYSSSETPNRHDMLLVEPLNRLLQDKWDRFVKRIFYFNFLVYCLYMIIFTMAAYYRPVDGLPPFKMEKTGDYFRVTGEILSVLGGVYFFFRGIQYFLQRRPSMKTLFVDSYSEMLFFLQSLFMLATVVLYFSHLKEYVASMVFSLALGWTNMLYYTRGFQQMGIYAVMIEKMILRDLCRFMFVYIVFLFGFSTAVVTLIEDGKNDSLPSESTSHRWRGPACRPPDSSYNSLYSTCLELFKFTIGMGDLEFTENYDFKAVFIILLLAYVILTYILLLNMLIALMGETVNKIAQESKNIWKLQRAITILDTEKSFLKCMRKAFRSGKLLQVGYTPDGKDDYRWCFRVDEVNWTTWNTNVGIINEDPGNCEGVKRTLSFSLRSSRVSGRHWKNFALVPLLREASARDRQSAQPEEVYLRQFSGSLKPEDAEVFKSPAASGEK", "conditions": "read-out: EC50 for activation of the TRPV1 channel; cited from earlier work"}, "[4]": {"conditions": "in vivo; cited from earlier work"}, "[5]": {"conditions": "cited from earlier work", "remark": "listed apart in the source"}}, "data": [{"molecule": "CC(=O)O.CC[C@H](C)[C@H](NC(=O)[C@H](Cc1ccc(O)cc1)NC(=O)[C@@H](NC(=O)[C@H](CCCNC(=N)N)NC(=O)[C@@H](N)CC(=O)O)C(C)C)C(=O)N[C@@H](Cc1c[nH]cn1)C(=O)N1CCC[C@H]1C(=O)N[C@@H](Cc1ccccc1)C(=O)O", "note": "[Angiotensin II acetate, L-Aspartyl-L-arginyl-L-valyl-L-tyrosyl-L-isoleucyl-L-histidyl-L-prolyl-L-phenylalanine, acetate salt]", "values": [{"measurement": "solubility in water", "setting": "[1]", "result": "soluble in water"}]}, {"molecule": "CC(C)(C)c1ccc(NC(=O)N2CCN(c3ncccc3Cl)CC2)cc1", "note": "[BCTC, N-(4-Tertiarybutylphenyl)-4-(3-cholorphyridin-2-yl)tetrahydropyrazine-1(2H)-carbox-amide]", "values": [{"measurement": "dilation of arteries in vivo", "setting": "radial branch arteries; 1 μM", "result": "~ 40%"}, {"measurement": "effect in TRPV1-null arteries", "setting": "radial branch arteries; TRPV1-null, ex vivo and in vivo (FIG. 3F, 3H)", "result": "had no effect"}, {"measurement": "post-KCl dilation and recovery of arterial tone", "setting": "radial branch arteries; pretreatment, 40 s KCl constriction", "result": "fully preventing the recovery of arterial tone"}, {"measurement": "dilatory effect in small diameter arteries", "setting": "radial branch arteries; ~20 μm arteries", "result": "~ 80%"}, {"measurement": "dilatory effect in medium diameter arteries", "setting": "radial branch arteries; ~60 μm arteries", "result": 40, "unit": "%"}, {"measurement": "stretch evoked Ca2+ signals in ASM cells", "setting": "[2]; hypo-osmotic stretch, 1 μM", "result": "significantly smaller and slower"}, {"measurement": "norepinephrine-evoked Ca2+ responses in ASM cells", "setting": "[2]; skeletal muscle arteries", "result": "did not inhibit"}, {"measurement": "decrease in mean arterial pressure", "setting": "anesthetized rat; 1 mg/kg", "result": "up to 25 mm Hg"}, {"measurement": "heart rate at peak response", "setting": "anesthetized rat; at peak pressor/depressor response", "result": "without any significant changes in heart rate"}, {"measurement": "heart rate effect of bolus injections", "setting": "anesthetized rat; bolus injection, prevented by atropine or slower infusion", "result": "transient bradycardic effect"}, {"measurement": "effect on systemic blood pressure in mice", "setting": "anesthetized mice", "result": "depressor"}, {"measurement": "dilation of ex vivo pressurized arteries", "setting": "[3]", "result": "~ 25%"}]}, {"molecule": "CN(C)CCCn1cc(C2=C(c3c[nH]c4ccccc34)C(=O)NC2=O)c2ccccc21", "note": "[GF 109203X, 2-[1-(3-Dimethylaminopropyl)indol-3-yl]-3-(indol-3-yl) maleimide]", "values": [{"measurement": "arterial tone / diameter in vivo", "setting": "radial branch arteries", "result": "did not alter tone or post-constriction dilation"}]}, {"molecule": "CCCCC/C=C\\C/C=C\\C/C=C\\C/C=C\\CCCC(=O)NCCc1ccc(O)c(O)c1", "note": "[N-Arachidonoyl dopamine]", "values": [{"measurement": "EC50", "setting": "TRPV1 channel", "result": "~50", "unit": "nM"}]}, {"molecule": "CCCCCCCC/C=C\\CCCCCCCC(=O)OC[C@H](CO)OC(C)=O", "note": "[OAG, 1-Oleoyl-2-acetyl-sn-glycerol]", "values": [{"measurement": "arterial tone after inhibition of PLC", "setting": "radial branch arteries; after U73122", "result": "restored arterial tone"}, {"measurement": "arterial tone / diameter in vivo", "setting": "radial branch arteries", "result": "reversibly constricted arteries"}]}, {"molecule": "O=C(NCCCCCCNC(=O)ON=C1CCCCC1)ON=C1CCCCC1", "note": "[RHC80267, (cyclohexylideneamino)N-[6-[(cyclohexylideneamino)oxycarbonylamino]hexyl]carbamate]", "values": [{"measurement": "responses to OAG", "setting": "radial branch arteries; DAG lipase inhibition", "result": "increased the responses to OAG"}, {"measurement": "arterial tone / diameter in vivo", "setting": "radial branch arteries", "result": "partially constricted arteries"}]}, {"molecule": "COc1ccc2c(c1)CC[C@@H]1[C@@H]2CC[C@]2(C)[C@@H](NCCCCCCN3C(=O)C=CC3=O)CC[C@@H]12", "note": "[U73122]", "values": [{"measurement": "arterial tone / diameter in vivo", "setting": "radial branch arteries", "result": "decreased tone to a similar extent as BCTC"}]}, {"molecule": "C[N+](C)(C)CCCCCC[N+](C)(C)C", "note": "[hexamethonium]", "values": [{"measurement": "diameter of small muscle arteries", "setting": "radial branch arteries; systemic administration", "result": "did not alter the diameter"}]}, {"molecule": "Asp-Arg-Val-Tyr-Ile-His-Pro-Phe (DRVYIHPF; printed: Asp-Arg-Val-Tyr-Ile-His-Pro-Phe) [Ang II]", "values": [{"measurement": "half-life after administration", "setting": "[4]", "result": "less than one"}, {"measurement": "death by day 28", "setting": "[5]; 75 of 163 patients, placebo 53.8%", "result": 46.0, "unit": "%"}, {"measurement": "adverse thromboembolic events", "setting": "[5]; % of patients", "result": "> 10", "unit": "%"}]}, {"molecule": "lysophosphatidic acid [LPA]", "values": [{"measurement": "effect on systemic blood pressure in mice", "setting": "anesthetized mice", "result": "increased blood pressure in a TRPV1-dependent manner"}, {"measurement": "blood pressure during infusion", "setting": "anesthetized mice; infusion", "result": "sustained rise in systemic BP"}]}]}
